Reference: patent US12590126B2, “Compounds for selective disruption of protein-protein interactions” (SyntheX, Inc., priority 2017, dated 2026)
Read-outs that look alike come from different tables or passages of the source. Where a SMILES comes first, the peptide text is derived from it. [ ]: non-standard residue; d: D form. 2Nal = N[C@@H](Cc1ccc2ccccc2c1)C(=O)O; dNle = CCCC[C@@H](N)C(=O)O; dAbu = CC[C@@H](N)C(=O)O; Ahx = NCCCCCC(=O)O; βAla = NCCC(=O)O

Experiments:
SSP-25 cells = assay: xCELLigence cell death assay in SSP-25 cells (cellular assay for RAD51 inhibition); assay type: cell-based; details: concentration gradient added at 20 hour mark, only values with R^>0.85 shown
Method: The efficacy of the peptides described herein was assessed by their ability to cause death in SSP-25 cells, which have amplification of RAD51 and are dependent on its activity.
First, 5,000 SSP25 cells were plated, and adherence and growth was measured for 20 hours using live measurements of current impedance through the plate using the xCELLigence™ instrument. At the 20 hour mark, a concentration gradient of each compound or a PBS control was added to the SSP-25 cells, which were cultured in […] RMPI media with 10% FBS. […] Only values with confidence and R^>0.85 are shown.

fresh human RBCs = assay type: cell-based; details: red cells of human, 1 h, 250
Method: To assess the nonspecific lytic properties of each compounds disclosed herein, each mentioned compound was tested for hemolytic properties against fresh human RBCs. Briefly, donor blood was drawn into a K2EDTA anticoagulant tube from multiple O+ donors. The blood was washed 3 times in PBS. RBCs were diluted to 2% in PBS and compounds were added at various concentrations. Samples were incubated at 37 C for 1 hr, then centrifuged at 2200 rpm for 5 min. Supernatants were measured for absorbance at 450 nm or 405 nm. The percentage hemolysis was calculated as lysis relative to 1% Triton X-100 incubation.

[1] = Mouse pharmacokinetics, IV and IP dosing; assay type: in vivo, mice; details: for AUC(0-inf) / AUC(0-t) / C0 / MRT inf / clearance / Vd / half-life: in vivo
Method: The pharmocokinetic parameters in mice by both intravenous (IV) and intraperitoneal (IP) dosing, as well as the serum and microsome stability for each of compound 22, 23, 24, and 25 was determined. Bioanalytical methods were developed for each compound using an LC-MS/MS method with LLOQ>100 ng/ml.
For in-vivo PK work, at least 3 mice were used per timepoint. For each compound, the animals were injected either IV or IP with the compound. IV injections used 1 mg/kg, and IP injections were at 15 mg/kg. Blood was collected at the indicated timepoints and analyzed according to the bioanalytical method developed.

in vitro [2] = details: mouse, serum
Method: Serum stability data was obtained using the appropriate animal serum, each incubated with the compound for up to two hours at 37 C.

in vitro [3] = details: human, microsomes
Method: (§1) For HLM and MLM stability studies, each compound was incubated with the liver microsome mixture for up to an hour at 37 C in the presence of NADPH.
(§2) After the incubations, the reactions were stopped and the compounds were analyzed according to the method developed for each.

in vitro [4] = details: mouse, microsomes
Method: as §1, §2

[5] = iv, 1 mg/kg, 1 mg/kg IV, read-out: Vss
[6] = iv, 1 mg/kg, 1 mg/kg IV, read-out: Vz
[7] = iv, 1 mg/kg, 1 mg/kg IV, read-out: t½ (converted)
[8] = iv, 1 mg/kg, IV (1 mg/kg), read-out: Half-life Mouse IV

In the case of `CCCC[C@@H](NC(=O)[C@@H](CC(C)C)NC(C)=O)C(=O)N[C@H](CCCNC(=N)N)C(=O)N[C@H](CC)C(=O)N[C@@H](C(=O)N[C@H](CCCNC(=N)N)C(=O)N[C@H](CC(C)C)C(=O)N[C@H](CCCNC(=N)N)C(=O)N[C@@H](C(=O)NCC(=O)N[C@H](CC(C)C)C(=O)N[C@H](CCCNC(=N)N)C(=O)N[C@H](CCCCN)C(=O)N[C@H](CCCNC(=N)N)C(=O)N[C@H](CCCNC(=N)N)C(=O)N[C@H](CCCNC(=N)N)C(=O)N[C@H](CCCNC(=N)N)C(=O)N[C@H](CCCNC(=N)N)C(=O)NCC(=O)N[C@@H](Cc1ccc2ccccc2c1)C(N)=O)C(C)C)C(C)C` [Compound 15, Ac-l{d-norLeucine}r(abu)vrlrvGlrkrrrrrGΦ-NH2] (Ac-[dL][dNle][dR][dAbu][dV][dR][dL][dR][dV]G[dL][dR][dK][dR][dR][dR][dR][dR]G[2Nal]-NH2), the IC50 (SSP-25 cells) is reported as 7.2 µM and the “% Hemolysis (250 uM)” value (fresh human RBCs) is reported as 49%.
With `CCCC[C@@H](NC(=O)[C@@H](CC(C)C)NC(C)=O)C(=O)N[C@H](CCCNC(=N)N)C(=O)N[C@H](CO)C(=O)N[C@@H](C(=O)N[C@H](CCCNC(=N)N)C(=O)N[C@H](CC(C)C)C(=O)N[C@H](CCCNC(=N)N)C(=O)N[C@@H](C(=O)NCCC(=O)N[C@H](CC(C)C)C(=O)N[C@H](CCCNC(=N)N)C(=O)N[C@H](CCCCN)C(=O)N[C@H](CCCNC(=N)N)C(=O)N[C@H](CCCNC(=N)N)C(=O)N[C@H](CCCNC(=N)N)C(=O)N[C@H](CCCNC(=N)N)C(=O)N[C@H](CCCNC(=N)N)C(=O)NCC(=O)N[C@@H](Cc1ccc2ccccc2c1)C(N)=O)C(C)C)C(C)C` [Compound 17, Ac-l{d-norLeucine}rsvdrv[beta-ALA]lrkrrrrrGΦ-NH2] (Ac-[dL][dNle][dR][dS][dV][dR][dL][dR][dV][βAla][dL][dR][dK][dR][dR][dR][dR][dR]G[2Nal]-NH2) the IC50 (SSP-25 cells) was 20 µM and the “% Hemolysis (250 uM)” value (fresh human RBCs) was 32%.
With `CCCC[C@@H](NC(=O)[C@@H](CCCNC(=N)N)NC(=O)[C@@H](CC(C)C)NC(=O)[C@@H](CCCNC(=N)N)NC(=O)[C@@H](CCCNC(=N)N)NC(=O)[C@@H](CC)NC(=O)[C@@H](CCCNC(=N)N)NC(=O)[C@@H](CCCC)NC(=O)[C@@H](CC(C)C)NC(C)=O)C(=O)NCCC(=O)N[C@H](CC(C)C)C(=O)N[C@H](CCCNC(=N)N)C(=O)N[C@H](CCCCN)C(=O)N[C@H](CCCNC(=N)N)C(=O)N[C@H](CCCNC(=N)N)C(=O)N[C@H](CCCNC(=N)N)C(=O)N[C@H](CCCNC(=N)N)C(=O)N[C@H](CCCNC(=N)N)C(=O)NCC(=O)N[C@@H](Cc1ccc2ccccc2c1)C(N)=O` [Compound 18, Ac-l{d-norLeucine}r(abu)rrlr[d-norLeucine][beta-ALA]lrkrrrrrGΦ-NH2] (Ac-[dL][dNle][dR][dAbu][dR][dR][dL][dR][dNle][βAla][dL][dR][dK][dR][dR][dR][dR][dR]G[2Nal]-NH2) the IC50 (SSP-25 cells) was 17.8 µM and the “% Hemolysis (250 uM)” value (fresh human RBCs) was 17%.
For `CCCC[C@@H](NC(=O)[C@@H](CC(C)C)NC(=O)CN(C)S(=O)(=O)c1cccc2c(N(C)C)cccc12)C(=O)N[C@H](CCCNC(=N)N)C(=O)N[C@H](CO)C(=O)N[C@@H](C(=O)N[C@H](CCCNC(=N)N)C(=O)N[C@H](CC(C)C)C(=O)N[C@H](CCCNC(=N)N)C(=O)N[C@@H](C(=O)NCC(=O)N[C@H](CC(C)C)C(=O)N[C@H](CCCNC(=N)N)C(=O)N[C@H](CCCNC(=N)N)C(=O)N[C@H](CCCNC(=N)N)C(=O)N[C@H](CCCNC(=N)N)C(=O)N[C@H](CCCNC(=N)N)C(=O)N[C@H](CCCNC(=N)N)C(=O)N(C)CC(=O)N(C)CC(=O)OC)C(C)C)C(C)C` [Compound 20, DANSYL-Sarcosine-l{d-norLeucine}rsvrlrvGlrrrrrr-sarcosine-sarcosine-OMe], the “% Hemolysis (250 uM)” value (fresh human RBCs) was 84%.
In the case of `CCCC[C@@H](NC(=O)[C@@H](CC(C)C)NC(C)=O)C(=O)N[C@H](CCCNC(=N)N)C(=O)N[C@H](CO)C(=O)N[C@@H](C(=O)N[C@H](CCCNC(=N)N)C(=O)N[C@H](CC(C)C)C(=O)N[C@H](CCCNC(=N)N)C(=O)N[C@@H](C(=O)NCC(=O)N[C@H](CC(C)C)C(=O)N[C@H](CCCNC(=N)N)C(=O)N[C@H](CCCNC(=N)N)C(=O)N[C@H](CCCNC(=N)N)C(=O)N[C@H](CCCNC(=N)N)C(=O)N[C@H](CCCNC(=N)N)C(=O)N[C@H](CCCNC(=N)N)C(=O)N(C)CC(=O)N(C)CC(=O)OC)C(C)C)C(C)C` [Compound 21, Ac-l{d-norLeucine}rsvrlrvGlrrrrrr-sarcosine-sarcosine-OMe], the IC50 (SSP-25 cells) is reported as 25 µM and the “% Hemolysis (250 uM)” value (fresh human RBCs) is reported as 31%.
With `CCCC[C@@H](NC(=O)[C@@H](CC(C)C)NC(C)=O)C(=O)N[C@H](CCCNC(=N)N)C(=O)N[C@H](C)C(=O)N[C@@H](C(=O)N[C@H](CCCNC(=N)N)C(=O)N[C@H](CC(C)C)C(=O)N[C@H](CCCNC(=N)N)C(=O)N[C@@H](C(=O)NCCC(=O)N[C@H](CC(C)C)C(=O)N[C@H](CCCNC(=N)N)C(=O)NCCCCCC(=O)N[C@H](CCCNC(=N)N)C(=O)NCCCCCC(=O)N[C@H](CCCNC(=N)N)C(=O)NCCCCCC(=O)N[C@H](CCCNC(=N)N)C(=O)NCCCCCC(=O)N[C@H](CCCNC(=N)N)C(=O)NCCCCCC(=O)N[C@H](CCCNC(=N)N)C(N)=O)C(C)C)C(C)C` [Compound 23, Ac-l{d-norLeucine}ravrlrv[beta-ALA]lr(Ahx)r(Ahx)r(Ahx)r(Ahx)r(Ahx)r-NH2] (Ac-[dL][dNle][dR][dA][dV][dR][dL][dR][dV][βAla][dL][dR][Ahx][dR][Ahx][dR][Ahx][dR][Ahx][dR][Ahx][dR]-NH2) the IC50 (SSP-25 cells) was 20.6 µM, the “% Hemolysis (250 uM)” value (fresh human RBCs) was 3% and the “AUC Extr” value ([1]; 1 mg/kg IV) was 28.5%. The AUC(0-inf) ([1]; 1 mg/kg IV) was 490 ng·h/mL, the AUC(0-t) ([1]; 1 mg/kg IV) was 347 ng·h/mL and the C0 ([1]; 1 mg/kg IV) was 1480 ng/mL. For the same molecule, the MRT inf ([1]; 1 mg/kg IV) was 44.3 min, the clearance ([1]; 1 mg/kg IV) was 36.1 mL/min/kg and the AUC(0-inf) ([1]; 15 mg/kg IP) was 341 ng·h/mL. It also gave an MRT inf ([1]; 15 mg/kg IP) of 394 min, a Vd [1, 5] of 1.56 L/kg and a Vd [1, 6] of 1.71 L/kg. For the same molecule, the half-life [1, 7] was 33.9 min, the half-life [1, 8] was 33.8 min and the half-life (in vitro [2]) was > 500 min. For the same molecule, the half-life (in vitro [3]) was 108 min and the half-life (in vitro [4]) was 41.8 min.
In the case of `CCCC[C@@H](NC(=O)[C@@H](CC(C)C)NC(C)=O)C(=O)N[C@H](CCCNC(=N)N)C(=O)N[C@H](C)C(=O)N[C@@H](C(=O)N[C@H](CCCNC(=N)N)C(=O)N[C@H](CC(C)C)C(=O)N[C@H](CCCNC(=N)N)C(=O)N[C@@H](C(=O)NCCC(=O)N[C@H](CC(C)C)C(=O)N[C@H](CCCNC(=N)N)C(=O)NCCCCCC(=O)N[C@H](CCCNC(=N)N)C(=O)NCCCCCC(=O)N[C@H](CCCNC(=N)N)C(=O)NCCCCCC(=O)N[C@H](CCCNC(=N)N)C(=O)NCCCCCC(=O)N[C@H](CCCNC(=N)N)C(=O)NCCCCCC(=O)N[C@H](CCCNC(=N)N)C(=O)NCCCCCC(=O)N[C@H](Cc1ccc(O)cc1)C(N)=O)C(C)C)C(C)C` [Compound 24, Ac-l{d-norLeucine}ravrlrv[beta-ALA]lr(Ahx)r(Ahx)r(Ahx)r(Ahx)r(Ahx)r(Ahx)y-NH2] (Ac-[dL][dNle][dR][dA][dV][dR][dL][dR][dV][βAla][dL][dR][Ahx][dR][Ahx][dR][Ahx][dR][Ahx][dR][Ahx][dR][Ahx][dY]-NH2), the IC50 (SSP-25 cells) is reported as 6.2 µM, the “% Hemolysis (250 uM)” value (fresh human RBCs) is reported as 3% and the “AUC Extr” value ([1]; 1 mg/kg IV) is reported as 28.8%. It also gave a Vss ([1]; 15 mg/kg IP) of 2.95 L/kg, an AUC(0-inf) ([1]; 1 mg/kg IV) of 528 ng·h/mL and an AUC(0-t) ([1]; 1 mg/kg IV) of 375 ng·h/mL. It also gave a C0 ([1]; 1 mg/kg IV) of 683 ng/mL, an MRT inf ([1]; 1 mg/kg IV) of 46.7 min and a clearance ([1]; 1 mg/kg IV) of 31.7 mL/min/kg. For the same molecule, the AUC(0-inf) ([1]; 15 mg/kg IP) was 1010 ng·h/mL, the MRT inf ([1]; 15 mg/kg IP) was 1070 min and the half-life ([1]; ip, 15 mg/kg, 15 mg/kg IP, read-out: t½ (converted)) was 113 min. It also gave a half-life ([1]; ip, 15 mg/kg, IP (15 mg/kg), read-out: Half-life Mouse IP) of 113 min, a Vd [1, 5] of 1.48 L/kg and a Vd [1, 6] of 1.51 L/kg. The half-life [1, 7] was 32.9 min, the half-life [1, 8] was 33 min and the half-life (in vitro [2]) was 277 min. The half-life (in vitro [3]) was 56.8 min and the half-life (in vitro [4]) was 116 min.
